How the values were obtained:
human TLR8 = biological target: T1, human TLR8 (Homo sapiens, UniProt Q9NR97); assay: HEK293-Blue-hTLR-8 cells assay (SEAP reporter, R848 stimulation); type: cell-based; conditions: HEK293-Blue-hTLR8 cells, R848, 20 hrs; read-out: HEK/hTLR8 IC50
T1 construct: host or cells: HEK293 (HEK-Blue hTLR8)
T1 sequence (Q9NR97 27-1041): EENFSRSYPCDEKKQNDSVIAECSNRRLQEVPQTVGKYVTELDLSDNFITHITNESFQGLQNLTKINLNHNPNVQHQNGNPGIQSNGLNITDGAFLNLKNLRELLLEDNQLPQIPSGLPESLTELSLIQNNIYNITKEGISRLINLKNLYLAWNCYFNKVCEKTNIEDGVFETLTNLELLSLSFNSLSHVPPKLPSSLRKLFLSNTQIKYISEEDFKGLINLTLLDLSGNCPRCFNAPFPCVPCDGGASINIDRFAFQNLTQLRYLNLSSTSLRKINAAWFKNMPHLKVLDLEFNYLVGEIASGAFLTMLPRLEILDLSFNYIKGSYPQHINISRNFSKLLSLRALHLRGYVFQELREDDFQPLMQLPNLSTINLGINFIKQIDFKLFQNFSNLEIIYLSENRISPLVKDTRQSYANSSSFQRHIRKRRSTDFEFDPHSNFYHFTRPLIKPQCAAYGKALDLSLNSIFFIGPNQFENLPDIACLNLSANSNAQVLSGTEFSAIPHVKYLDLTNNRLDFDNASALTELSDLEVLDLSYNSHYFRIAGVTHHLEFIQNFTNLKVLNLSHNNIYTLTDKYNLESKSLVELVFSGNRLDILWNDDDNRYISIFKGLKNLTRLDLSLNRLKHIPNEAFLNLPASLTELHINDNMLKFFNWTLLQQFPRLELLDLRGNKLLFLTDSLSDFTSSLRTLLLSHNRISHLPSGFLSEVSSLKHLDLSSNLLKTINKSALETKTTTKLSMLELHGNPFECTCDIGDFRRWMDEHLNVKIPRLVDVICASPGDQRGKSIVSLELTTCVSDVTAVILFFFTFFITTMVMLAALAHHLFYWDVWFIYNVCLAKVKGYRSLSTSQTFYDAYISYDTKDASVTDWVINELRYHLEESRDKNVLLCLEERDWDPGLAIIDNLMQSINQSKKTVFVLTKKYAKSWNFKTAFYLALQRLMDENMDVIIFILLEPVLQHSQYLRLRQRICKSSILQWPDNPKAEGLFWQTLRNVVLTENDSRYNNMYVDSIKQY
How it was run: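 Antagonism read as reduced R848-induced SEAP reporter secretion, detected by QUANTI-Blue absorbance at 620–655 nm after 2 h. Reporter cells were exposed to compound dilutions in DMEM/10% FBS, 1% DMSO, for 20 h at 37° C.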

CYP3A4 = biological target: T2, CYP3A4 (Homo sapiens, UniProt P08684); assay: CYP inhibition assay in human liver microsome, CYP3A4; type: in vitro ADME; conditions: substrate midazolam 5 μM, third value of 2C9/2D6/3A4; for inhibition at 5 min, 10 µM: human, human liver microsomes, probe midazolam 5 μM
T2 construct: tissue BD-Gentest 452117; host or cells: human liver microsomes
How it was run: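 Pooled human liver microsomes with a substrate for each CYP were incubated with compound at 37 °C after NADPH addition, for 5 min (CYP2D6: 10 min), then quenched with acetonitrile containing labelled metabolite standards. Metabolite/internal-standard peak area ratios were measured by RapidFire MS/MS. % inhibition was scaled between DMSO and standard-inhibitor controls.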

CYP2D6 = biological target: T3, CYP2D6 (Homo sapiens, UniProt P10635); assay: CYP inhibition assay in human liver microsome, CYP2D6; type: in vitro ADME; conditions: substrate dextromethorphan 5 μM, second value of 2C9/2D6/3A4; for inhibition at 10 min, 10 µM: human, human liver microsomes, probe dextromethorphan 5 μM
T3 construct: tissue BD-Gentest 452117; host or cells: human liver microsomes
Description: This is a high throughput screening assay used for assessment of reversible inhibition of CYP2C9, CYP2D6, and CYP3A4 activity of test compounds in human liver microsome (HLM) in early discovery stage.
10 mM DMSO stock solutions of test compounds were diluted in DMSO to generate 2 mM intermediate stock solution. 250 nL, of intermediate stock solution were transferred in duplicate into 3 separate 384 well microtitre plates (assay-ready plates). A mixture of HLM and each substrate was made up. 45 μL of HLM substrate mix was then transferred to each well of an assay ready plate and mixed. The negative (solvent) and positive controls (standard inhibitor for each CYP) were included in each assay ready plate. The assay ready plate was warmed to 37° C. in an incubator over 10 minutes. 5 μL pre-warmed NADPH regenerating system was added to each incubation well to start the reaction. Final incubation volume was 50 μL. The assay plate then was placed back in the 37° C. incubator. After incubation (10 minutes for CYP2D6) for 5 minutes, incubates were quenched by addition of 50 μL 100% acetonitrile containing internal standards (400 ng/mL 13C6-4′-OH-Diclofenac, 20 ng/mL D3-Dextrorphan and 20 ng/mL D4-1′OH-Midazolam). The supernatants were collected for RapidFire/MS/MS analysis.
RapidFire online solid phase extraction/sample injection system (Agilent) coupled with API4000 triple quadrupole mass spectrometer (AB Sciex) were used for sample analysis. The mobile phase composed of acetonitrile and water supplemented with 0.1% formic acid. A C4 solid phase extraction cartridge is used for sample separation. MS detection is achieved in positive ion MRM mode.
Peak areas for substrate, metabolite and internal standard are determined using the RapidFire integrator software (version 3.6.12009.12296). Peak area ratios (PAR) of metabolite and internal standard (stable-labelled metabolite) are then calculated. The measurement window for each experiment is then defined:
PAR (0% activity)=average PAR for all incubations containing concentrated inhibitor; Par (100% activity)=average PAR for all incubations containing no inhibitor (DMSO controls); % Activity (test inhibitor)=[PAR (test inhibitor)−PAR (0% activity)]/[PAR (100% activity)−PAR (0% activity)]; % Inhibition (test inhibitor)=100-% Activity (test inhibitor).

T3 sequence (P10635 whole entry): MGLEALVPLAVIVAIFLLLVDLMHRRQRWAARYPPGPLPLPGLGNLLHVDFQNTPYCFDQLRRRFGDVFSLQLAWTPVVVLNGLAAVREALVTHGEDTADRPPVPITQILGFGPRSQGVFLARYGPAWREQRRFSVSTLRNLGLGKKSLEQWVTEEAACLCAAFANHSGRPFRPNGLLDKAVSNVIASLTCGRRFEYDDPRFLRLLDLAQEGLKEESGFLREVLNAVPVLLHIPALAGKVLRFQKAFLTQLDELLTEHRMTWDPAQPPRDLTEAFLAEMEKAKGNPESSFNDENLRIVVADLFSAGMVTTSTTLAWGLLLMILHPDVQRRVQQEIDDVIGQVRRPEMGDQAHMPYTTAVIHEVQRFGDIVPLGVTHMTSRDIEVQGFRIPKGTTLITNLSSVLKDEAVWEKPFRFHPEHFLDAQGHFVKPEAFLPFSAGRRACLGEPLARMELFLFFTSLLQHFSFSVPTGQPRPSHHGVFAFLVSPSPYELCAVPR
T2 sequence (P08684 whole entry): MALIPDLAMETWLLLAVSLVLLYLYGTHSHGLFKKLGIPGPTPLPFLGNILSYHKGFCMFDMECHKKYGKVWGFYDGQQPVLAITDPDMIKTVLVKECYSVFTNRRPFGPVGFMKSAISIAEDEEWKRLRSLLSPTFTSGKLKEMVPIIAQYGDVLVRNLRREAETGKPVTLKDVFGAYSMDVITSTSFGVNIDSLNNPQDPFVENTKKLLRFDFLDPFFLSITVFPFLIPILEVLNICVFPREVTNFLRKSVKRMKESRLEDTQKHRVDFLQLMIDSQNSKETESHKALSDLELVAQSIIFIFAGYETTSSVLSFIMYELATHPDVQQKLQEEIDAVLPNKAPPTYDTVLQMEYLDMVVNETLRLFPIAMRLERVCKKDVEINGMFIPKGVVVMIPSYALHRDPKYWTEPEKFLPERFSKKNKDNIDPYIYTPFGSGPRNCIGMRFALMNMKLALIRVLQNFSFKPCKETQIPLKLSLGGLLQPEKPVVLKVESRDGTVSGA

| Compound | IC50 (human TLR8) [nM] | inhibition at 5 min, 10 µM (CYP3A4) [%] | inhibition at 10 min, 10 µM (CYP2D6) [%] | CYP (%) 3A4 inhibition (CYP3A4) [%] | CYP (%) 2D6 inhibition (CYP2D6) [%] |
| --- | --- | --- | --- | --- | --- |
| COC1CNC[C@H]1Nc1cccc(N2CCN(C[C@H]3CN(c4ccc(C#N)c5ncccc45)C[C@@H](C)O3)CC2)n1 (stereo in doubt) [Example 39, 5-[(2S,6R)-2-[[4-[6-[[(3R,4R)-4-methoxypyrrolidin-3-yl]amino]-2-pyridyl]piperazin-1-yl]methyl]-6-methyl-morpholin-4-yl]quinoline-8-carbonitrile] | 23 | 23.5 | -4 | – | – |
| COC1CN(c2nccc(N3CCN(C[C@H]4CN(c5ccc(C#N)c6ncccc56)C[C@@H](C)O4)CC3)n2)C[C@H]1N (stereo in doubt) [Example 52, 5-[(2S,6R)-2-[[4-[2-[(3R,4R)-3-amino-4-methoxy-pyrrolidin-1-yl]pyrimidin-4-yl]piperazin-1-yl]methyl]-6-methyl-morpholin-4-yl]quinoline-8-carbonitrile] | 3 | – | – | 2 | 10.5 |
| CO[C@H]1CN(c2nccc(N3CCN(C[C@H]4CN(c5ccc(C#N)c6ncccc56)C[C@@H](C)O4)CC3)n2)CC1N (stereo in doubt) [Example 53, 5-[(2S,6R)-2-[[4-[2-[(3S,4S)-3-amino-4-methoxy-pyrrolidin-1-yl]pyrimidin-4-yl]piperazin-1-yl]methyl]-6-methyl-morpholin-4-yl]quinoline-8-carbonitrile] | 3 | – | – | 7.5 | 21.5 |
| C[C@@H]1CN(c2ccc(C#N)c3ncccc23)C[C@H](CN2CCN(c3cncc(N4CCNCC4)c3)CC2)O1 [Example 7, 5-[(2R,6S)-2-methyl-6-[[4-(5-piperazin-1-yl-3-pyridyl)piperazin-1-yl]methyl]morpholin-4-yl]quinoline-8-carbonitrile] | 9 | 15.5 | 7.5 | – | – |
| C[C@@H]1CN(c2ccc(C#N)c3ncccc23)C[C@H](CN2CCN(c3ccc(N4CCNCC4)cn3)CC2)O1 [Example 8, 5-[(2R,6S)-2-methyl-6-[[4-(5-piperazin-1-yl-2-pyridyl)piperazin-1-yl]methyl]morpholin-4-yl]quinoline-8-carbonitrile] | 10 | -3.5 | 6 | – | – |
| C[C@@H]1CN(c2ccc(C#N)c3ncccc23)C[C@H](CN2CCN(c3cc(N4CCNCC4)ccn3)CC2)O1 [Example 9, 5-[(2R,6S)-2-methyl-6-[[4-(4-piperazin-1-yl-2-pyridyl)piperazin-1-yl]methyl]morpholin-4-yl]quinoline-8-carbonitrile] | 3 | 7.5 | 2 | – | – |
| C[C@@H]1CN(c2ccc(C#N)c3ncccc23)C[C@H](CN2CCC(C#N)(c3ccc(N4CCNCC4)cc3)CC2)O1 [Example 11, 5-[(2S,6R)-2-[[4-cyano-4-(4-piperazin-1-ylphenyl)-1-piperidyl]methyl]-6-methyl-morpholin-4-yl]quinoline-8-carbonitrile] | 13 | 11 | 0 | – | – |
| C[C@@H]1CN(c2ccc(C#N)c3ncccc23)C[C@H](CN2CCN(c3nccc(N4CCNCC4)n3)CC2)O1 [Example 14, 5-[(2R,6S)-2-methyl-6-[[4-(4-piperazin-1-ylpyrimidin-2-yl)piperazin-1-yl]methyl]morpholin-4-yl]quinoline-8-carbonitrile] | 3 | -2 | 16.5 | – | – |
| C[C@@H]1CN(c2ccc(C#N)c3ncccc23)C[C@H](CN2CCN(c3ccnc(N4CCNCC4)n3)CC2)O1 [Example 15, 5-[(2R,6S)-2-methyl-6-[[4-(2-piperazin-1-ylpyrimidin-4-yl)piperazin-1-yl]methyl]morpholin-4-yl]quinoline-8-carbonitrile] | 3 | 11.5 | -2.5 | – | – |
| C[C@@H]1CN(c2ccc(C#N)n3ncc(F)c23)C[C@H](CN2CCN(c3ccc(N4CC5(CCN5)C4)nc3)CC2)O1 [Example 179, 4-[(2S,6R)-2-[[4-[6-(1,6-diazaspiro[3.3]heptan-6-yl)-3-pyridyl]piperazin-1-yl]methyl]-6-methyl-morpholin-4-yl]-3-fluoro-pyrazolo[1,5-a]pyridine-7-carbonitrile] | 54 | – | – | – | – |
| C[C@@H]1CN(c2cc(=O)n(C)c3ncccc23)C[C@H](CN2CC(c3ccc(N4CC5(CN(C)C5)C4)cc3)C2)O1 [Example 180, 1-methyl-4-[(2R,6S)-2-methyl-6-[[3-[4-(6-methyl-2,6-diazaspiro[3.3]heptan-2-yl)phenyl]azetidin-1-yl]methyl]morpholin-4-yl]-1,8-naphthyridin-2-one] | 77 | – | – | – | – |
| C[C@@H]1CN(c2cc(=O)n(C)c3ncccc23)C[C@H](CN2CC(c3ccc(N4C[C@H]5NCCO[C@@H]5C4)cc3)C2)O1 [Example 182, 4-[(2S,6R)-2-[[3-[4-[(4aR,7aR)-3,4,4a,5,7,7a-hexahydro-2H-pyrrolo[3,4-b][1,4]oxazin-6-yl]phenyl]azetidin-1-yl]methyl]-6-methyl-morpholin-4-yl]-1-methyl-1,8-naphthyridin-2-one] | 51 | – | – | – | – |
| C[C@@H]1CN(c2ccc(C#N)n3ncc(F)c23)C[C@H](CN2CCN(c3ccc([C@@H]4CNCCO4)c(F)c3)CC2)O1 [Example 184, 3-fluoro-4-[(2S,6R)-2-[[4-[3-fluoro-4-[(2R)-morpholin-2-yl]phenyl]piperazin-1-yl]methyl]-6-methyl-morpholin-4-yl]pyrazolo[1,5-a]pyridine-7-carbonitrile] | 14 | – | – | – | – |
| C[C@@H]1CN(c2ccc(C#N)n3ncc(F)c23)C[C@H](CN2CCN(c3ccc(C4(C)CNCCO4)cc3)CC2)O1 (stereo partly drawn) [Example 185, 3-fluoro-4-[(2R,6S)-2-methyl-6-[[4-[4-(2-methylmorpholin-2-yl)phenyl]piperazin-1-yl]methyl]morpholin-4-yl]pyrazolo[1,5-a]pyridine-7-carbonitrile] | 33 | – | – | – | – |
| C[C@@H]1CN(c2ccc(C#N)n3ncc(F)c23)C[C@H](CN2CCN(c3ccc(C[C@@H]4CNCCO4)cc3)CC2)O1 [Example 186, 3-fluoro-4-[(2R,6S)-2-methyl-6-[[4-[4-[[(2R)-morpholin-2-yl]methyl]phenyl]piperazin-1-yl]methyl]morpholin-4-yl]pyrazolo[1,5-a]pyridine-7-carbonitrile] | 23 | – | – | – | – |

From patent US20210395239A1 (Hoffmann-La Roche Inc., priority 2018, published 2021)
